“Also recorded” adds a separate entry of the source.
Assays:
[1] = test system: neurons differentiated from ReN cells; assay: PS exposure by Annexin V-FITC binding; format: cell-based, human; conditions: treatment for 3 days at 10 μM or 20 μM
Experimental: The most significant biochemical change caused by ABCD1 mutations is increased VLCFA levels including free fatty acid and LPC (in particular C24:0 and C26:0) in plasma and tissues. In order to determine whether neurons exposed to high VLCFA levels have PS exposure on their surfaces, neurons differentiated from ReN cells were treated with both C26:0 free fatty acid (FFA C26:0) and LPC C26:0 and then determined the PS exposure by Annexin V-FITC binding. Immortalized hNPC cell line ReNcell VM (ReN) was used to differentiate into neurons according to a published protocol (Kim et al., 2015). Simply, ReN cells were grown in proliferation medium (DMEM/F12 (Gibco/Life Technologies) with 2 μg/ml heparin (stock, STEMCELL Technologies), 2% B27 (Life Technologies), 20 ng/ml EGF, 20 ng/ml bFGF and 1% of 100× penicillin/streptomycin (Gibco/Life Technologies) until confluency. For differentiation, 3×10^4 cells were seeded on matrigel-coated (1:100 dilution in DMEM/F12) 8 well chamber slides and grown in differentiation medium (DMEM/F12 (Gibco/Life Technologies) with 2 μg/ml heparin (stock, STEMCELL Technologies), 2% B27 (Life Technologies) and 1% of 100× penicillin/streptomycin (Gibco/Life Technologies) for 2-3 weeks prior to co-culture with microglia.

[2] = test system: neurons differentiated from ReN cells; assay: Cleaved-caspase and Tuj 1 staining after VLCFA treatment; format: cell-based, human; conditions: for cleaved-caspase staining (late apoptosis): differentiated ReN neurons after FFA C26:0 or LPC C26:0 treatment
[3] = test system: MFGE8; assay: MFGE8 gene expression in N9 microglia; format: cell-based; conditions: 30 uM, 3 days
Experimental: (§1) In order to learn whether microglial changes seen in vivo were primary or secondary to axon degeneration, microglia was isolated from postnatal mice and molecular changes in unstimulated conditions was assessed as well as after LPS challenge. Microglia cultures were prepared as previously described (Tamashiro et al., 2012). Briefly, mixed glial cultures (˜95% astrocytes, ˜5% microglia) were prepared from the brain tissue of 1-3 day old mice. The tissue was trypsinized with 0.05% trypsin, and the cells were resuspended in glia complete medium DMEM (Lonza) supplemented with 10% fetal bovine serum (FBS), 100 IU/ml penicillin, 100 μg/ml streptomycin and 2 mM L-Glutamine. After 10-14 days in culture, microglia were isolated from the mixed glial cultures by the shake-off procedure. Specifically, loosely attached microglia were obtained from an incubator shaker at 250 rpm for 2 h at 37° C., the cell-containing medium was centrifuged at 1100 rpm for 3 minutes to collect microglia for subsequent culture. N9 microglia cells were cultured in RPMI 1640 medium supplemented with 10% FBS.
After observing an unexpected increase of phagocytosis-related biomarkers at the tissue level, whether gene expression of these markers would be altered in vitro was examined. Total RNA from cells or tissues were isolated using Qiagen RNeasy Mini Kit (Qiagen). First-strand cDNA synthesis used 100 ng random primer (Life Technologies), […], 10 mM dNTP, and 200 units of reverse transcriptase (Life Technologies) per 20 μL reactions. PCRs were performed in duplicates in a 25 μl final volume by using SYBR Green master mix from Applied Biosystems (Life Technologies). The data was analyzed by calculating the delta Ct value between the tested gene and an internal control.
In order to examine whether VLCFA has any effect on MFGE8 expression, microglial cell lines (N9) were treated with 30 uM FFA C26:0, LPC C16:0 and LPC C26:0 separately for 3 days.

[4] = test system: MFGE8; assay: MFGE8 gene expression in primary isolated microglia; format: cell-based, mouse; conditions: primary microglia from WT and Abcd1−/− mice, 15 uM
Experimental: as §1
After observing an unexpected increase of phagocytosis-related biomarkers at the tissue level, whether gene expression of these markers would be altered in vitro was examined. […] The data was analyzed by calculating the delta Ct value between the tested gene and an internal control. […]

[5] = test system: MFGE8; assay: MFGE8 protein secretion in primary isolated microglia (ELISA); format: cell-based, mouse; conditions: primary microglia from WT and Abcd1−/− mice, 15 uM
Experimental: as §1
An ELISA assay detected 2-fold higher MFGE8 protein secretion into media by Abcd1−/− microglia (FIG. 4D, P<0.05; MFGE8 and TNFa level in culture medium and spinal cord homogenate were measured using MFGE8 and TNFa ELISA kit (R&D) according to manufacturer's instructions). […]

[6] = test system: differentiated ReN cells in the co-culture system with primary Abcd1−/− microglia; assay: Co-culture of differentiated neurons with primary Abcd1−/− microglia; format: cell-based
Experimental: As a bridging protein, MFGE8 tightly binds to exposed phosphatidylserine on surface membranes of stressed neurons and opsonizes them for phagocytosis. Indeed, in co-culture, Abcd1−/− microglia increased phagocytosis of phosphatidylserine-exposing neurons in both unstimulated and LPS-challenged conditions (FIG. 4E). For the co-culture of microglia and neurons, isolated microglia were seeded on top of differentiated neurons and co-cultured for 4 days with or without supplementation of VLCFA. For VLCFA supplementation, hexacosanoic acid (FFA C26:0) and Lysophosphatidylcholine (LPC) C16:0 and C26:0 (Avanti polar lipid) were solubilized in 50 mg/ml Methyl-β-cyclodextrin to make 3 mM stock solution and then supplemented into culture medium to reach designated concentration with Methyl-β-cyclodextrin as vehicle control. […] Tuj-1 immunofluoresece and degenerated axons were quantified in each group.
The most significant biochemical change caused by ABCD1 mutations is increased VLCFA levels including free fatty acid and LPC (in particular C24:0 and C26:0) in plasma and tissues. In order to determine whether neurons exposed to high VLCFA levels have PS exposure on their surfaces, neurons differentiated from ReN cells were treated with both C26:0 free fatty acid (FFA C26:0) and LPC C26:0 and then determined the PS exposure by Annexin V-FITC binding. […]

[7] = test system: primary microglia from Abcd1−/− mice; assay: Microglial phagocytosis assay (PS exposing SH-SY5Y neurons seeded on microglia); format: cell-based, mouse; conditions: primary Abcd1−/− microglia pretreated 12 hours; MFGE8 at 50 ng/ml; 4 hours co-culture
Experimental: To validate the impact of MFGE8, primary microglia from Abcd1−/− mice were pretreated with either MFGE8 (50 ng/ml) or MFGE8 antibody for 12 hours and then phagocytosis was assessed by performing a microglial phagocytosis assay. Microglia were seeded in 8-well chamber (7×10^4/well in complete medium) and cultured for 24 hours. SH-SY5Y cells were treated with 100 uM H2O2 for 12 hours to induce phosphatidylserine (PS) exposure on cell surface. Floating SH-Sy5Y cells were then collected by centrifuge at 1000 g for 3 minutes, resuspended in serum free medium and stained with 3 μM CMTPX (red)(Life Science Technologies)(1:1000 dilution) for 30 minutes. A portion of the floating cells was subjected to Annexin V-FITC staining to confirm the exposure of phosphatidylserine. The remnant was washed twice and seeded (same amount as microglia) on top of the microglial layer. After 4 hours co-culture, cells were washed with PBS and fixed with 4% paraformaldehyde (PFA) for 15 min at room temperature. Microglia were then stained with IBA1 antibody (Wako) overnight followed by Alexa Fluor-488 conjugated second antibody. For quantification, 5 random images were taken from each chamber well using a confocal microscope (Zeiss). The total number of phagocytosed particles as well as cell-sized particles was counted and divided by microglia cell number.

| Molecule | PS exposure on cell surface (Annexin V-FITC) [1] | cleaved-caspase staining (late apoptosis) [2] | MFGE8 mRNA expression [3] | neuronal marker Tuj 1 morphology ([2]; differentiated ReN neurons after LPC C26:0 treatment) | MFGE8 expression at mRNA level [4] | MFGE8 expression at protein level (secretion) [5] | decrease of Tuj 1 expression ([6]; 15 uM LPC C26:0, co-culture 4 days) [%] | axon degeneration (quantification of degenerated axons) ([6]; co-culture system with LPC C26:0 supplementation, with or without MFGE8 antibody) | microglial phagocytosis of PS exposing neurons [7] |
| --- | --- | --- | --- | --- | --- | --- | --- | --- | --- |
| CCCCCCCCCCCCCCCCCCCCCCCCCC(=O)O [FFA C26:0, hexacosanoic acid] | did not induce significant PS exposure | did not reveal a notable positive signal | did not have an effect | – | – | – | – | – | – |
| CCCCCCCCCCCCCCCC(=O)OC[C@@H](O)COP(=O)([O-])OCC[N+](C)(C)C [LPC C16:0, Lysophosphatidylcholine (LPC) C16:0] | – | – | did not have an effect | – | – | – | – | – | – |
| CCCCCCCCCCCCCCCCCCCCCCCCCC(=O)OC[C@@H](O)COP(=O)([O-])OCC[N+](C)(C)C [LPC C26:0, Lysophosphatidylcholine (LPC) C26:0] | remarkable dose dependent PS exposure; also recorded: showed exposure of phosphatidylserine (PS) | did not reveal a notable positive signal; also recorded: little late apoptosis | significantly increased | did not show significant morphological changes | significant increases | significant increases | 20 | increased axon degeneration | – |
| MFGE8: milk fat globule EGF factor 8 protein, supplemented to microglia at 50 ng/ml (protein, UniProt Q08431 24-387, looked up) Lactadherin: LDICSKNPCHNGGLCEEISQEVRGDVFPSYTCTCLKGYAGNHCETKCVEPLGLENGNIANSQIAASSVRVTFLGLQHWVPELARLNRAGMVNAWTPSSNDDNPWIQVNLLRRMWVTGVVTQGASRLASHEYLKAFKVAYSLNGHEFDFIHDVNKKHKEFVGNWNKNAVHVNLFETPVEAQYVRLYPTSCHTACTLRFELLGCELNGCANPLGLKNNSIPDKQITASSSYKTWGLHLFSWNPSYARLDKQGNFNAWVAGSYGNDQWLQVDLGSSKEVTGIITQGARNFGSVQFVASYKVAYSNDSANWTEYQDPRTGSSKIFPGNWDNHSHKKNLFETPILARYVRILPVAWHNRIALRLELLGC | – | – | – | – | – | – | – | – | significant increase; also recorded: dramatically increased |

Source: patent US12276670B2, “Methods for identifying and treating adrenomyeloneuropathy (AMN)” (The General Hospital Corporation, priority 2017, dated 2025)
